# Assay results from US11602518B2, “Lipidic furan, pyrrole, and thiophene compounds for use in the treatment of atrophic vaginitis” (Avoscience, LLC, priority 2016, dated 2023).
# Test system: female subjects diagnosed with vaginal atrophy
# Assay: Double blind placebo control study: tissue morphometry by vaginal biopsy after topical Formula I(n) capsules
# Format: in vivo, human
# From the text: The histology and morphometry of vaginal atrophy is characterized by a reduction in dermal and epidermal thickness, dermal collagen content (hydroxyproline), the number of cells in the tissue (by DNA content and histology), and dermal and epidermal protein content as well as reduction in overall dermal metabolism as measured by [^14 C]-glucose. These parameters are all increased by the action of topical administration of Formula I(n).
# In a double blind placebo control study, a baseline tissue morphometry was determined by biopsy on 20 female subjects diagnosed with vaginal atrophy. Subjects applied a capsule daily containing either Formula I(n) (3%) and avocado oil or simply a capsule of avocado oil alone.
# [1] = biopsy after 60 days, daily capsule 3% in avocado oil
# [2] = biopsy after 60 days, daily capsule 3% in avocado oil, over control
compound,measurement,setting,value
"CCCCC/C=C\C/C=C\CCCCCCCc1ccco1 [Formula I(n), 2-(8Z,11Z-heptadecadienyl)furan]",increase in dermal thickness,"biopsy after 60 days vs baseline, daily capsule 3% in avocado oil, control vehicle 7%",53%
same,increase in epidermal thickness,"biopsy after 60 days vs baseline, daily capsule 3% in avocado oil, control vehicle 9%",76%
same,Dermal fibroblast population (cross section) increase,[1],231%
same,Dermal fibroblast population (number) increase,[1],127%
same,increase in aerobic glucose utilization or metabolism,[1],413%
same,increase in total thickness (epidermal and dermal combined),[1],156%
same,DNA content increase over control,[2],68%
same,Dermal collagen content increase over control,[2],74%
same,Protein content increase over control,[2],122%
same,inflammatory response,"biopsy after 60 days, daily topical capsule, Formula I(n) (3%) and avocado oil",No observable inflammatory response
same,"dermal and epidermal thickness, dermal collagen content, number of cells, dermal and epidermal protein content, overall dermal metabolism","topical administration, summary statement",increased
